The values that follow come from patent publication US4477451A, “5,6-Dihydro-11-methylenemorphanthridin-6-ones, their preparation and drugs containing these compounds” (BASF Aktiengesellschaft, priority 1982, dated 1984).

For the experiment, the system named is gastric ulcers (ulcerous mucosal lesions). Nature of the experiment: antiulcerogenic action on the rat (reserpine/indometacin/cold-induced gastric ulcers, oral test substance). Format: in vivo, female Sprague-Dawley rats. To be noted: for ED50: Rattus norvegicus, oral, dose which reduces the ulcerous area by 50%, reserpine 1 mg/kg i.p., indometacin 21.5 mg/kg i.p., 6 hours at 8° C., read-out: Antiulcerogenic action on the rat, ED 50%; for Antiulcerogenic action on the rat, Relative activity: relative to pirenzepine = 1.0. The protocol:
To investigate the antiulcerogenic action, 1 mg/kg of reserpine is administered intraperitoneally to groups of 10 female Sprague-Dawley rats each weighing 160-180 g, and the rats then remain without food for 18 hours (water ad libitum). This period is followed by intraperitoneal administration of 21.5 mg/kg of indometacin and oral administration of the test substance to the animals, which are then kept for 6 hours at 8° C., after which they are sacrificed. The stomachs are removed, and the area of ulcerous mucosal lesions is determined. The dose which reduces the ulcerous area by 50%, ie. the ED 50%, is determined from the linear regression between the logarithms of the doses administered and the relative reduction in the area of ulcerations, based on the control animals.
Pirenzepine (5,11-dihydro-11-[(4-methylpiperazin-1-yl)-acetyl]-6H-pyrido[2,3-b][1,4]benzodiazepin-6-one; German Pat. No. 1,795,183) is used as the reference substance.

With `O=C(/C=C1\c2ccccc2NC(=O)c2ccccc21)OCCN1CCOCC1` [Example 1, trans, trans-11-(2-morpholin-1-yl)-ethoxycarbonylmethylene-5,6-dihydromorphanthridin-6-one], the ED50 came to 5.3 mg/kg and the “Antiulcerogenic action on the rat, Relative activity” value amounted to 1.2.
With `O=C(C=C1c2ccccc2NC(=O)c2ccccc21)OCCCN1CCOCC1` (mixture of isomers) [Example 14, cis,trans-11-(3-Morpholin-1-yl)-propoxycarbonylmethylene-5,6-dihydromorphanthridin-6-one], the ED50 was determined as 0.83 mg/kg and the “Antiulcerogenic action on the rat, Relative activity” value is listed as 7.8.
Regarding `O=C(C=C1c2ccccc2NC(=O)c2ccccc21)OCCN1CCOCC1` (mixture of isomers) [Example 1, cis,trans-11-(2-Morpholin-1-yl)-ethoxycarbonylmethylene-5,6-dihydromorphanthridin-6-one], the ED50 was 1.9 mg/kg and the “Antiulcerogenic action on the rat, Relative activity” value stood at 3.4.
In the same order, the values of `O=C(/C=C1/c2ccccc2NC(=O)c2ccccc21)OCCN1CCOCC1` [Example 1, cis, cis-11-(2-morpholin-1-yl)-ethoxycarbonylmethylene-5,6-dihydromorphanthridin-6-one] are 1.5 mg/kg and 4.3.
In the same order, the values of `CN(C)CCOC(=O)C=C1c2ccccc2NC(=O)c2ccccc21` (mixture of isomers) [Example 2, cis,trans-11-(2-Dimethylamino)-ethoxycarbonylmethylene-5,6-dihydromorphanthridin-6-one] are 0.64 mg/kg and 10.2.
In the case of `CN1CCN(CC(=O)N2c3ccccc3C(=O)Nc3cccnc32)CC1` [pirenzepine, 5,11-dihydro-11-[(4-methylpiperazin-1-yl)-acetyl]-6H-pyrido[2,3-b][1,4]benzodiazepin-6-one, reference compound], the ED50 was 6.5 mg/kg.
